Data published in patent US6339079B1, “Steroid sulfamates, method for the production and use thereof” (id pharma GmbH, priority 1997, dated 2002).

What was measured:
[1] = estrogenic effectiveness in vivo; details: applied orally in vivo
[2] = molecular target: T1, steroid sulfatase (Homo sapiens, UniProt P08842); details: found by M. J. Reed et al.; cited from earlier work
T1 sequence (P08842 22-583): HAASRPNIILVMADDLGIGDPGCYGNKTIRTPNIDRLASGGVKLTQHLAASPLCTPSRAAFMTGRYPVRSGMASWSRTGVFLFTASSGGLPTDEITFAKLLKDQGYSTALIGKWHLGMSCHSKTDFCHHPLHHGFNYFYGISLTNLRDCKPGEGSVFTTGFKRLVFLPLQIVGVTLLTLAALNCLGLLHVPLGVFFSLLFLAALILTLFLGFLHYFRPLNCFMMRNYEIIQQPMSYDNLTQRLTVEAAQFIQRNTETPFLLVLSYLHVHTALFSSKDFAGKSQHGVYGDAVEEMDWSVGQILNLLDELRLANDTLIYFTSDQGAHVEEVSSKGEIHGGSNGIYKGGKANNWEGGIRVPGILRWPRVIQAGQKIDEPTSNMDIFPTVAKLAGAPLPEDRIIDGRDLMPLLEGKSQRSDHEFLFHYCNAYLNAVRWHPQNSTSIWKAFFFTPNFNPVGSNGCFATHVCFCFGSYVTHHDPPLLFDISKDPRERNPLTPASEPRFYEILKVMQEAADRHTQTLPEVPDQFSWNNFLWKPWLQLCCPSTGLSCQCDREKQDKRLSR

SMILES | estrogenic effectiveness compared with estradiol-3-sulfamate ([1]; relative to estradiol-3-sulfamate) | estrogenic effectiveness compared with estriol ([1]; relative to estriol) | sulfatase-inhibiting activity [2]
C[C@]12CC[C@@H]3c4ccc(OS(N)(=O)=O)cc4CC[C@H]3[C@@H]1C[C@@H](Br)[C@@H]2O [16α-bromoestradiol-3-sulfamate, 16α-Bromo-3-sulfamoyloxy-13β-methyl-1,3,5(10)-gonatrien-17β-ol] | three times more effective | five times more effective | –
C[C@]12CC[C@@H]3c4ccc(OS(N)(=O)=O)cc4CC[C@H]3[C@@H]1CC[C@@H]2O [estradiol-3-sulfamate] | – | – | strong sulfatase-inhibiting activity
C[C@]12CC[C@@H]3c4ccc(OS(N)(=O)=O)cc4CC[C@H]3[C@@H]1CCC2=O [estrone-3-sulfamate] | – | – | strong sulfatase-inhibiting activity
